Measurements reported in patent publication US20250290142A1, “DETECTING OXIDATIVE STRESS IN CELL(S) USING EPIGENETIC MEANS” (Evonik Operations GmbH, priority 2022, published 2025).

Tested on: T-Skin models (reconstructed human skin)
Settings: maintained 24 hrs
Experimental: T-Skin models were obtained from Episkin SA, France which is composed of reconstructed human skin. Each skin model consists of a dermal equivalent overlaid by a stratified, well-differentiated epidermis derived from normal human keratinocytes. Upon receiving the skin models, it was recovered by incubating in T-Skin culture medium overnight at 37° C. in a 5% CO2 incubator.
The genomic DNA (500 ng) from tissue samples were subjected to bisulfite conversion using the EZ DNA Methylation-Gold™ Kit (Zymo Research). The methylation levels were quantified using Infinium MethylationEPIC v2.0 Kit (Illumina) which can analyze over 850,000 methylation sites quantitatively across the genome at single-nucleotide resolution.
Quality check on samples was performed to keep probes that have a detection P-value <0.01 in one or more samples or have a mean detection P-value <0.05 in all samples. […]
Prior to differential methylation analysis, the probes with non-specific binding, cross reactive probes, probes affected by common SNPs, and probes annotated to the X, Y chromosomes were also filtered out. Beta-value and M-value of normalized and filtered samples were calculated using getBeta and getM function respectively, the samples were then subjected to further downstream analysis. […]

Structure (SMILES): OO [H2O2, Hydrogen peroxide]
- methylation status of probes vs cells without OS (FIG. 4A) (high H2O2 (200 μM) for 2 hrs): large number of probes that are hypomethylated
- methylation status of probes vs cells without OS (FIG. 3A) (low H2O2 (100 μM) for 2 hrs): large number of probes that are hypomethylated
